Assay results: patent US9113629B2, “4-amino-6-(4-substituted-phenyl)-picolinates and 6-amino-2-(4-substituted-phenyl)-pyrimidine-4-carboxylates and their use as herbicides” (DOW AGROSCIENCES LLC, priority 2013, dated 2015)

Tests used:
[1] = system: APESV: bentgrass (Apera spica-venti); test: Post-emergent Test III, herbicidal activity in wheat and barley; assay type: in vivo; settings: Table 9, 21 d; for pest or weed control at 35 g/ha / pest or weed control at 70 g/ha / pest or weed control at 140 g/ha: Apera spica-venti, post-emergence, 504 h, post-emergent, read-out: Visual Growth Reduction (%) 21 Days After Application APESV; for pest or weed control at 35 g/ha: 35 g ai/ha; for pest or weed control at 70 g/ha: 70 g ai/ha; for GR50 APESV: dose for 50 percent growth reduction; for GR50 APESV / GR80 APESV: probit analysis; for GR80 APESV: dose for 80 percent growth reduction; for pest or weed control at 140 g/ha: 140 g ai/ha
Outline: (§1)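 Plants at the second to third true-leaf stage, grown in a greenhouse at about 18/17 °C with a 14 h photoperiod, were sprayed post-emergence at 187 L/ha with the high rate and ½× to 1/16× serial dilutions in an acetone/DMSO/crop-oil/surfactant carrier. Injury was rated visually at 21 d on a 0–100% scale, and GR20–GR90 were derived by probit analysis.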

[2] = system: HORSS: barley, including spring and winter (Hordeum vulgare); test: as above; assay type: in vivo; settings: Table 9, 21 d; for pest or weed control at 35 g/ha / pest or weed control at 70 g/ha / pest or weed control at 140 g/ha: Hordeum vulgare, post-emergence, 504 h, post-emergent, read-out: Visual Growth Reduction (%) 21 Days After Application HORSS; for pest or weed control at 35 g/ha: 35 g ai/ha; for pest or weed control at 70 g/ha: 70 g ai/ha; for GR20 HORSS: dose for 20 percent growth reduction, probit analysis; for pest or weed control at 140 g/ha: 140 g ai/ha
Outline: as §1

[3] = system: SETVI: green foxtail (Setaria viridis); test: as above; assay type: in vivo; settings: Table 9, 21 d; for pest or weed control at 35 g/ha / pest or weed control at 70 g/ha / pest or weed control at 140 g/ha: Setaria viridis, post-emergence, 504 h, post-emergent, read-out: Visual Growth Reduction (%) 21 Days After Application SETVI; for pest or weed control at 35 g/ha: 35 g ai/ha; for pest or weed control at 70 g/ha: 70 g ai/ha; for GR50 SETVI: dose for 50 percent growth reduction; for GR50 SETVI / GR80 SETVI: probit analysis; for GR80 SETVI: dose for 80 percent growth reduction; for pest or weed control at 140 g/ha: 140 g ai/ha
Outline: as §1

[4] = system: KCHSC: kochia (Kochia scoparia); test: as above; assay type: in vivo; settings: Table 9, 21 d; for pest or weed control at 35 g/ha / pest or weed control at 70 g/ha / pest or weed control at 140 g/ha: Bassia scoparia, post-emergence, 504 h, post-emergent, read-out: Visual Growth Reduction (%) 21 Days After Application KCHSC; for pest or weed control at 35 g/ha: 35 g ai/ha; for pest or weed control at 70 g/ha: 70 g ai/ha; for GR50 KCHSC: dose for 50 percent growth reduction; for GR50 KCHSC / GR80 KCHSC: probit analysis; for GR80 KCHSC: dose for 80 percent growth reduction; for pest or weed control at 140 g/ha: 140 g ai/ha
Outline: as §1

[5] = as above; assay type: in vivo, Lolium multiflorum, Lolium rigidum; settings: Lolium multiflorum, post-emergence, 504 h, Table 9, post-emergent, 21 d, read-out: Visual Growth Reduction (%) 21 Days After Application LOLSS; for pest or weed control at 35 g/ha: 35 g ai/ha; for pest or weed control at 70 g/ha: 70 g ai/ha; for pest or weed control at 140 g/ha: 140 g ai/ha
Outline: as §1

[6] = system: TRZSS: wheat, including spring and winter (Triticum aestivum); test: as above; assay type: in vivo; settings: Table 9, 21 d; for GR20 TRZSS: dose for 20 percent growth reduction, probit analysis; for pest or weed control at 35 g/ha / pest or weed control at 70 g/ha / pest or weed control at 140 g/ha: Triticum aestivum, post-emergence, 504 h, post-emergent, read-out: Visual Growth Reduction (%) 21 Days After Application TRZSS; for pest or weed control at 35 g/ha: 35 g ai/ha; for pest or weed control at 70 g/ha: 70 g ai/ha; for pest or weed control at 140 g/ha: 140 g ai/ha
Outline: as §1

[7] = system: LOLSS: ryegrass including, Italian ryegrass (Lolium multiflorum), rigid ryegrass (Lolium rigidum), annual ryegrass (Lolium multiflorum subsp. Gaudini); test: as above; assay type: in vivo; settings: Table 9, probit analysis, 21 d; for GR50 LOLSS: dose for 50 percent growth reduction; for GR80 LOLSS: dose for 80 percent growth reduction
Outline: as §1

SMILES	pest or weed control at 35 g/ha [1] [%]	pest or weed control at 70 g/ha [1] [%]	GR50 APESV [1] [g ai/ha]	GR80 APESV [1] [g ai/ha]	pest or weed control at 35 g/ha [2] [%]	pest or weed control at 70 g/ha [2] [%]	GR20 HORSS [2] [g ai/ha]	pest or weed control at 35 g/ha [3] [%]	pest or weed control at 70 g/ha [3] [%]	GR50 SETVI [3] [g ai/ha]	GR80 SETVI [3] [g ai/ha]	pest or weed control at 35 g/ha [4] [%]	pest or weed control at 70 g/ha [4] [%]	GR50 KCHSC [4] [g ai/ha]	GR80 KCHSC [4] [g ai/ha]	pest or weed control at 35 g/ha [5] [%]	pest or weed control at 70 g/ha [5] [%]	GR20 TRZSS [6] [g ai/ha]	pest or weed control at 35 g/ha [6] [%]	pest or weed control at 70 g/ha [6] [%]	also measured
COC(=O)c1nc(-c2ccc(I)cc2F)cc(N)c1Cl [Compound 159]	85 to 94	95 to 100	11	25	85 to 94	95 to 100	1	45 to 59	60 to 74	43	113	85 to 94	95 to 100	4	19	45 to 59	60 to 74	1	85 to 94	95 to 100	GR50 LOLSS [7]: 36 g ai/ha; GR80 LOLSS [7]: 89 g ai/ha
Cc1c(-c2ccc(C(F)(F)F)c(F)c2)nc(C(=O)O)c(Cl)c1N [Compound 161, 4-amino-3-chloro-6-(3-fluoro-4-(trifluoromethyl)phenyl)-5-methylpicolinic acid]	60 to 74	75 to 84	30	57	85 to 94	85 to 94	1	30 to 44	60 to 74	53	128	0 to 29	0 to 29	>140	>140	0 to 29	0 to 29	1	75 to 84	75 to 84	GR50 LOLSS [7]: 38 g ai/ha; GR80 LOLSS [7]: 82 g ai/ha
Nc1c(Cl)c(C(=O)O)nc(-c2ccc(C(F)(F)F)c(F)c2)c1Cl [Compound 146]	95 to 100	95 to 100	23	34	75 to 84	85 to 94	1	45 to 59	75 to 84	41	76	0 to 29	0 to 29	>140	>140	0 to 29	0 to 29	1	75 to 84	85 to 94	pest or weed control at 140 g/ha [1]: 95 to 100%; pest or weed control at 140 g/ha [2]: 95 to 100%; pest or weed control at 140 g/ha [3]: 95 to 100%; pest or weed control at 140 g/ha [4]: 0 to 29%; pest or weed control at 140 g/ha [5]: 0 to 29%; pest or weed control at 140 g/ha [6]: 85 to 94%; GR50 LOLSS [7]: >140 g ai/ha; GR80 LOLSS [7]: >140 g ai/ha
Nc1cc(-c2ccc(Br)cc2F)nc(C(=O)O)c1Cl [Compound 74]	85 to 94	85 to 94	10	25	85 to 94	85 to 94	1	75 to 84	85 to 94	3	49	85 to 94	95 to 100	3	11	30 to 44	45 to 59	1	75 to 84	75 to 84	GR50 LOLSS [7]: >140 g ai/ha; GR80 LOLSS [7]: >140 g ai/ha
Nc1c(Cl)c(C(=O)O)nc(-c2ccc(Br)cc2)c1Cl [Compound 125]	75 to 84	85 to 94	10	41	85 to 94	95 to 100	1	85 to 94	85 to 94	2	16	60 to 74	85 to 94	8	34	0 to 29	0 to 29	1	75 to 84	75 to 84	pest or weed control at 140 g/ha [1]: 95 to 100%; pest or weed control at 140 g/ha [2]: 95 to 100%; pest or weed control at 140 g/ha [3]: 85 to 94%; pest or weed control at 140 g/ha [4]: 95 to 100%; pest or weed control at 140 g/ha [5]: 45 to 59%; pest or weed control at 140 g/ha [6]: 85 to 94%; GR50 LOLSS [7]: >140 g ai/ha; GR80 LOLSS [7]: >140 g ai/ha
C=Cc1c(C(=O)O)nc(-c2ccc(Br)cc2)c(F)c1N [Compound 117]	45 to 59	60 to 74	41	>140	0 to 29	0 to 29	73	0 to 29	60 to 74	59	99	60 to 74	75 to 84	20	67	45 to 59	60 to 74	32	0 to 29	30 to 44	GR50 LOLSS [7]: 41 g ai/ha; GR80 LOLSS [7]: >140 g ai/ha
